Data as given in PubChem BioAssay (NCI).
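Results reflect a 48-hour exposure of cells in 96-well plates to compound at five concentrations. TGI: total growth inhibition.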

Key:
Assay in all cases: NCI-60 cell line screen, 48 h
SNB-19 CNS = tested on: SNB-19 CNS
HS 578T breast = tested on: HS 578T breast
HCC-2998 colon = tested on: HCC-2998 colon
KM12 colon = tested on: KM12 colon
M14 melanoma = tested on: M14 melanoma
SF-295 CNS = tested on: SF-295 CNS
NCI-H23 lung = tested on: NCI-H23 lung
EKVX NSCLC = tested on: EKVX NSCLC
ACHN renal = tested on: ACHN renal
A549 NSCLC = tested on: A549 NSCLC
RPMI-8226 leukemia = tested on: RPMI-8226 leukemia
HT29 colon = tested on: HT29 colon
CAKI-1 renal = tested on: CAKI-1 renal
SK-MEL-2 melanoma = tested on: SK-MEL-2 melanoma
SW-620 colon = tested on: SW-620 colon
OVCAR-4 ovarian = tested on: OVCAR-4 ovarian
NCI/ADR-RES ovarian = tested on: NCI/ADR-RES ovarian
DU-145 prostate = tested on: DU-145 prostate
PC-3 prostate = tested on: PC-3 prostate
MDA-MB-231 breast = tested on: MDA-MB-231 breast
MDA-MB-435 = tested on: MDA-MB-435
SK-MEL-5 melanoma = tested on: SK-MEL-5 melanoma
CCRF-CEM leukemia = tested on: CCRF-CEM leukemia
T-47D breast = tested on: T-47D breast
OVCAR-5 ovarian = tested on: OVCAR-5 ovarian
MCF7 breast = tested on: MCF7 breast
NCI-H460 lung = tested on: NCI-H460 lung
SK-OV-3 ovarian = tested on: SK-OV-3 ovarian
NCI-H226 lung = tested on: NCI-H226 lung
UACC-62 melanoma = tested on: UACC-62 melanoma
HCT-15 colon = tested on: HCT-15 colon
UO-31 renal = tested on: UO-31 renal
HL-60(TB) leukemia = tested on: HL-60(TB) leukemia
HOP-62 NSCLC = tested on: HOP-62 NSCLC
SF-268 CNS = tested on: SF-268 CNS
786-0 renal = tested on: 786-0 renal
SN12C renal = tested on: SN12C renal
MDA-N = tested on: MDA-N
IGROV1 ovarian = tested on: IGROV1 ovarian
K-562 leukemia = tested on: K-562 leukemia
BT-549 breast = tested on: BT-549 breast
TK-10 renal = tested on: TK-10 renal
SK-MEL-28 melanoma = tested on: SK-MEL-28 melanoma
COLO 205 colon = tested on: COLO 205 colon
SNB-75 CNS = tested on: SNB-75 CNS
HCT-116 colon = tested on: HCT-116 colon
OVCAR-8 ovarian = tested on: OVCAR-8 ovarian
MOLT-4 leukemia = tested on: MOLT-4 leukemia
RXF 393 renal = tested on: RXF 393 renal
NCI-H522 lung = tested on: NCI-H522 lung
LOX IMVI melanoma = tested on: LOX IMVI melanoma
MALME-3M melanoma = tested on: MALME-3M melanoma
SF-539 CNS = tested on: SF-539 CNS
OVCAR-3 ovarian = tested on: OVCAR-3 ovarian
UACC-257 melanoma = tested on: UACC-257 melanoma
U251 CNS = tested on: U251 CNS
A498 renal = tested on: A498 renal
SR leukemia = tested on: SR leukemia

Measured: TGI

Cc1cc(S(=O)(=O)Nc2nc(N)n(C)n2)c(S)cc1Cl
not listed: SR leukemia
> 10 µM: all other assays above

O=C(c1nsc(Cl)c1Cl)N1CCCCC1
not listed: ACHN renal | SK-MEL-2 melanoma | T-47D breast | NCI-H460 lung | NCI-H522 lung | A498 renal
> 100 µM: all other assays above
